Data on 46 compounds can be found in US8058243B2, “Method for treating a brain cancer with ifenprodil” (HSC Research and Development Limited Partnership, priority 2006, dated 2011).

This test relates to murine neural precursor cells (neurosphere cultures). As to the kind of experiment: HTS of LOPAC library against secondary neurosphere cultures, MTT proliferation assay at 3 μM, day 7 (z score, P value). In kind it is cell-based, mouse.
Where [1] appears, read: LOPAC library screen, 3 μM, MTT, secondary neurosphere cultures, day 7.
Where [2] appears, read: LOPAC primary screen, neurosphere MTT proliferation, 3 μM, day 7.
The mark [3] stands for this setting: yes = significantly inhibited neurosphere proliferation (P<0.01) in the primary screen.
The mark [4] stands for this setting: LOPAC library screen at 3 μM, secondary neurosphere cultures, MTT.
Where [5] appears, read: yes/no: significantly inhibited neurosphere proliferation (P<0.01) in the primary screen.
Setting [6] is: LOPAC library screen, 3 μM, MTT, neurosphere cultures.
The mark [7] stands for this setting: LOPAC screen, neurosphere MTT proliferation, 3 μM, day 7.
Where [8] appears, read: yes/no: significantly inhibited neurosphere proliferation (P<0.01) in primary screen.
The mark [9] stands for this setting: primary LOPAC screen, 3 μM, MTT, neurosphere proliferation.
[10] abbreviates: yes/no: significantly inhibited neurosphere proliferation in the primary screen.

Structures can show the parent of a compound that is named as a salt. Where two headings read alike, the source gives them in different places.

Regarding `CC(=O)O.CNC(=N)NCCC[C@H](N)C(=O)O` [NG-Monomethyl-L-arginine acetate], the “Z Score” value under setting [1] was −1.386. In addition, the Z score under setting [2] is reported as −1.386. For the same compound, the Activity result under setting [3] is listed as “no”.

With `CO/N=C(\C(=O)N[C@@H]1C(=O)N2C(C(=O)O)=C(COC(C)=O)CS[C@H]12)c1csc(N)n1` [Cefotaxime sodium], the “Z Score” value under setting [4] is −1.096. This compound also yielded a Z score under setting [2] of −1.096. In addition, under setting [5], the Activity result is recorded as “no”.

Turning to `CCCCS(=N)(=O)CCC(N)C(=O)O` [L-Buthionine-sulfoximine], the “Z Score” value under setting [6] is 0.5134. In addition, the Z score under setting [7] was found to be 0.513. The Activity entry under setting [8] is “no”.

For `NC(=O)c1ncn([C@@H]2O[C@H](CO)[C@@H](O)[C@H]2O)n1` [Ribavirin], the Activity entry is “no”.

Turning to `CC(=O)[C@H]1CC[C@H]2[C@@H]3CC[C@H]4C[C@H](O)CC[C@]4(C)[C@H]3CC[C@]12C` [5alpha-Pregnan-3alpha-ol-20-one], the “Z Score” value is given as 0.9335. Under setting [2], this compound displayed a Z score of 0.934. Further, under “yes/no: significantly inhibited neurosphere proliferation in primary screen”, the Activity result is “no”.

`Cl.Cl.Cl.Cl.NCCCNCCCCNCCCN` [Spermine tetrahydrochloride]: the Activity entry is “no”, the “Z Score” value is given as 0.3942 and the Z score is 0.394.

`CC(CCc1ccc(O)cc1)NCCc1ccc(O)c(O)c1` (stereo not drawn) [Dobutamine hydrochloride]: the “Z Score” value under setting [6] is listed as 0.3185. Further, the Z score under setting [7] is 0.319. Also, the Activity entry under setting [8] was “no”.

For `NCCCS(=O)(=O)O.[Na]` [3-Amino-1-propanesulfonic acid sodium], under setting [1], the “Z Score” value is reported as −6.691. For the same compound, the Z score under setting [2] is recorded as −6.691. Under setting [5], the Activity entry is on record as “yes”.

Take `Br.NC1CCc2cc(O)c(O)cc2C1` (stereo not drawn) [6,7-ADTN hydrobromide]: the “Z Score” value under setting [6] is recorded as 0.357. Also, the Z score under setting [7] came to 0.357. Also, the Activity result under setting [8] was “no”.

Regarding `CN(C)C(=N)NCCC[C@H](N)C(=O)O.Cl` [N′,N′-Dimethylarginine hydrochloride], the Z score under setting [7] was −1.373. Moreover, the Activity result under setting [8] is listed as “no”.

Take `N#C/C(=C\c1ccc(O)c(O)c1)C(N)=S` [Tyrphostin 47]: the “Z Score” value was determined as 0.1775. Besides, the Z score under setting [9] turned out to be 0.178. Moreover, the Activity result under setting [10] is recorded as “no”.

In the case of `Cl.OC1CCCCC1N1CCC(c2ccccc2)CC1` (stereo not drawn) [(B1)-Vesamicol hydrochloride], the “Z Score” value was −1.967.

For `O=C(CCc1ccc(O)cc1)c1c(O)cc(O)cc1O` [Phloretin], where the note is “168 h, 3 µM”, the “Z Score” value was 0.9165 and the Z score came out at 0.916.

In the case of `Br.Br.N=C(N)SCCN` [2-(2-Aminoethyl)isothiourea dihydrobromide], under “168 h, 3 µM”, the “Z Score” value is reported as −1.251 and the Z score was −1.251. Also, the Activity entry under setting [10] was “no”.

As for `CNC(=O)Oc1ccc2c(c1)[C@]1(C)CCN(C)[C@@H]1N2C` [(−)-Physostigmine], the “Z Score” value is −0.2178. This compound also came in with a Z score under setting [2] of −0.218. Further, under setting [8], the Activity entry is recorded as “no”.

For `NCCS` [Cysteamine hydrochloride], under setting [4], the “Z Score” value was −0.5989. Also, under setting [2], the Z score is reported as −0.599. Moreover, under setting [3], the Activity entry is “no”.

For `CCOC(=O)Nc1ccc(NCc2ccc(F)cc2)nc1N` [Flupirtine maleate], the “Z Score” value under setting [4] is on record as −0.484. Besides, the Z score under setting [2] was −0.484. In addition, the Activity result under setting [8] is on record as “no”.

For the compound `NNC(=O)c1ccc(O)cc1` [4-Hydroxybenzhydrazide], the “Z Score” value is −0.7888. The same compound had a Z score under setting [2] of −0.789. The Activity result under setting [8] was “no”.

Take `NCCc1c[nH]c2ccc(C(N)=O)cc12.O=C(O)/C=C\C(=O)O` [5-Carboxamidotryptamine maleate]: for the setting “LOPAC library screen at 3 μM, MTT, secondary neurosphere cultures, screened in singlets”, the “Z Score” value is listed as 1.667. Further, the Z score under setting [7] is recorded as 1.667. The Activity entry under setting [8] is listed as “no”.

With `C[C@H](Cc1ccc2c(c1)OC(C(=O)[O-])(C(=O)[O-])O2)NC[C@H](O)c1cccc(Cl)c1.[Na+].[Na+]` [CL 316, 243], the “Z Score” value is given as 0.6212.

For the compound `CCn1ccnc1CC1COc2ccccc2O1` (stereo not drawn) [Imiloxan hydrochloride], under setting [4], the “Z Score” value is −0.9879. Also, the Z score under setting [2] was −0.988. The Activity result under setting [8] is “no”.

On to `CN1CCc2cccc(Cl)c2CC1` [SKF 86466], for which the “Z Score” value came out at 0.8822. The Z score under setting [2] is given as 0.882. In addition, the Activity entry under setting [3] is reported as “no”.

As to `O=[N+]([O-])c1cc(O)c(O)c([N+](=O)[O-])c1` [3,5-Dinitrocatechol], the “Z Score” value is reported as −0.5294. In addition, the Z score under setting [7] was −0.529. For the same compound, under setting [8], the Activity result is “no”.

As to JL-18, the “Z Score” value was −0.2861. This compound came in with a Z score under setting [2] of −0.286. Also, the Activity entry under setting [8] is given as “no”.

Turning to `C[C@H]1c2cccc(O)c2C(=O)C2=C(O)[C@]3(O)C(=O)C(C(N)=O)=C(O)[C@@H](N(C)C)[C@@H]3[C@@H](O)[C@@H]21` [Doxycycline hydrochloride], the “Z Score” value under setting [4] is −0.5578. This compound also yielded a Z score under setting [7] of −0.558. The Activity entry under setting [8] was “no”.

Regarding `CNC(=O)[C@H]1O[C@@H](n2cnc3c(NCc4cccc(I)c4)ncnc32)[C@H](O)[C@@H]1O` [IB-MECA], the “Z Score” value under setting [4] is given as −1.089. This compound showed a Z score under setting [2] of −1.089. In addition, the Activity entry under setting [8] is “no”.

Turning to `C[C@]12CC[C@@H](O)C[C@@H]1CC[C@@H]1[C@@H]2CC[C@]2(C)[C@@H](O)CC[C@@H]12` [5alpha-Androstane-3alpha, 17beta-diol], the “Z Score” value is reported as −0.3811.

On to `NC(CP(=O)(O)O)C(=O)O` (stereo not drawn) [(B1)-2-Amino-3-phosphonopropionic acid], for which the “Z Score” value is reported as 1.25.

In the case of `Br.CCCN(CCC)C1CCc2cccc(O)c2C1` (racemic) [(±)-8-Hydroxy-DPAT hydrobromide], the Z score under setting [2] came out at 0.656. Under setting [5], the Activity result was “no”.

For `COc1ccc(C(=O)N2CCCC2=O)cc1` [Aniracetam], the “Z Score” value under setting [1] is recorded as −1.355. Moreover, the Z score under setting [9] is −1.355. For the same compound, the Activity result under setting [10] is “no”.

In the case of `CC(C)(C)C1(O)CCN2CC3c4ccccc4CCc4cccc(c43)C2C1.Cl` (single isomer, unassigned; (+)) [(+)-Butaclamol hydrochloride], under setting [1], the “Z Score” value is −11.27. Further, under setting [2], the Z score is reported as −11.274. Under setting [5], the Activity result was “yes”.

As for `COc1cc2c(cc1C(F)(F)F)N(C(=O)Nc1cc(F)cc(-c3cccnc3)c1)CC2` [SB 228357], the “Z Score” value was found to be 0.03426. Under setting [2], this compound showed a Z score of 0.034. Further, under setting [8], the Activity entry was “no”.

Regarding `Cc1nc(-c2ccc(-c3ccc(C(=O)N4CCc5cc6c(cc54)C4(CCN(C)CC4)CO6)cc3)c(C)c2)no1.Cl` [SB 224289 hydrochloride], the “Z Score” value under setting [1] is given as −4.786. Under setting [2], this compound registered a Z score of −4.786. Further, under setting [5], the Activity entry is reported as “yes”.

The compound `CC(C)(C)NCC(O)COc1cccc2[nH]c(=O)[nH]c12.Cl` (racemic) [(±)-CGP-12177A hydrochloride] displayed a Z score under setting [7] of −1.611. For the same compound, under setting [8], the Activity result is given as “no”.

In the case of `Cl.NCC(O)C1CCCCCCC1` (stereo not drawn), the “Z Score” value is −0.5747.

Regarding `CC(=O)Oc1cc(C(C)C)c(OCCN(C)C)cc1C` [Moxisylyte hydrochloride], under setting [4], the “Z Score” value is listed as −1.018. Further, the Z score under setting [2] is −1.018. Moreover, the Activity entry under setting [3] is “no”.

`O=C(O)CCC/C=C\C[C@@H]1[C@@H](/C=C/[C@H](O)C2Cc3ccccc3C2)[C@@H](F)C[C@@H]1O` [AL-8810]: the “Z Score” value is listed as −1.806. Under setting [9], this compound came in with a Z score of −1.806. In addition, the Activity result under setting [10] is on record as “no”.

Consider `Cc1nc2c([nH]1)c(=O)n(C)c(=O)n2Cc1ccco1` [Furafylline], for which the “Z Score” value under setting [6] came out at 1.025. The compound further had a Z score under setting [2] of 1.025. In addition, the Activity result under setting [8] was “no”.

In the case of `COc1ccccc1NC(=O)Nc1nc(-c2cccnc2)nc2ccccc12` [VUF 5574], the “Z Score” value came out at 0.5811. For the same compound, the Z score under setting [9] is 0.581. Also, the Activity entry under setting [10] is given as “no”.

As to `C[Se]C[C@H](N)C(=O)O.Cl` [Se-(methyl)selenocysteine hydrochloride], the “Z Score” value was found to be 0.4116. In addition, under setting [2], the Z score stood at 0.412. Also, the Activity result under setting [3] is given as “no”.

Regarding `O=C(OCCN1CCOCC1)C1(c2ccccc2)CCCCC1` [PRE-084], the “Z Score” value amounted to 1.311. Further, under setting [2], the Z score is reported as 1.311. In addition, the Activity result under setting [5] is given as “no”.

For `CC(=O)OC(C)C[N+](C)(C)C.[Cl-]` (stereo not drawn) [Acetyl-beta-methylcholine chloride], under setting [4], the “Z Score” value is listed as −0.3382. In addition, under setting [9], the Z score is listed as −0.338. For the same compound, the Activity entry under setting [10] was “no”.

With `COc1ccc2c(c1)c(CC(=O)N1CCOCC1)c(C)n2C(=O)c1ccc(Cl)cc1` [Indomethacin morpholinylamide], where the note is “168 h, 3 µM”, the “Z Score” value is −3.398 and the Z score is listed as −3.398. In addition, the Activity result under setting [5] is “yes”.

Consider `Cc1c(C)c2c(c(C)c1O)CCC(C)(CN1CCN(c3cc(N4CCCC4)nc(N4CCCC4)n3)CC1)O2.Cl.Cl` (stereo not drawn) [U-83836 dihydrochloride], for which the “Z Score” value is given as 0.954. This compound displayed a Z score under setting [2] of 0.954. Moreover, the Activity entry under setting [5] is given as “no”.

As for 5-Bromo-2$$-deoxyuridine, the “Z Score” value is given as 2.58.

Consider `CC(C(=O)O)c1cccc(C(=O)c2ccccc2)c1` (stereo not drawn) [Ketoprofen], for which the Activity entry is “no”. Further, the “Z Score” value under setting [4] is on record as −1.164. Under setting [2], this compound registered a Z score of −1.164.
